Laboratory results reported in patent US20200121627A1, “COMPOSITION COMPRISING AZELAIC ACID OR AS ACTIVE INGREDIENTS FOR MUSCLE STRENGTHENING, DEVELOPMENT, DIFFERENTIATION, REGENERATION OR INHIBITING MUSCLE ATROPHY” (priority 2018, published 2020).

Experiments:
[1] = test system: nicotinamide adenine dinucleotide phosphate (NADP) oxidase; details: cited from earlier work
[2] = test system: various strains of skin microorganisms; details: 0.5 mol/l (8.4% w/v) azelaic acid solution, 24 hours, all bacterial strains; cited from earlier work
[3] = test system: interleukin-1β, interleukin-6, and TNF-α; details: human epidermal cells treated with 20 mM azelaic acid; cited from earlier work
[4] = test system: Mouse myoblast cell line (C2C12 cells); test: Myotube length in dexamethasone-treated mouse myoblasts (muscle loss-inhibitory efficacy), Wright-Giemsa staining; format: cell-based; details: 100 μM azelaic acid combined with 50 μM dexamethasone for two days from the 4th day of differentiation
Method: (§1) Mouse myoblast cell line (C2C12 cells) was purchased from ATCC (Manassas, Va., USA) and used. The purchased cell line was incubated in an incubator at 37° C., 5% CO2 using 10% fetal bovine serum medium (Gibco-BRL) and used for experiments. […] In order to identify muscle-potentiating efficacy, treatment with 100 μM azelaic acid (CAS Number 123-99-9, Sigma) was performed for two days from the day when differentiation began, and a control was treated with 100 μM dimethyl sulfoxide (DMSO; Sigma). […] Sigma) and 100 μM azelaic acid (CAS Number 123-99-9, Sigma) was performed for two days from the 4th day of differentiation. The cells were washed twice with phosphate buffered saline (PBS), and then fixed for 10 minutes with 100% methanol. […] Co., Ltd., Seoul, South Korea) that specifically stains myotubes. Stained myotubes were photographed at ×40 magnification using a fluorescence microscope (IX 71, Olympus) and analyzed using Image J software (USA). Six sections of each well were randomly selected and micrographed. Lengths of at least 100 myotubes from each well were analyzed (3 repetitions/group).

p-4E-BP1 = test: Western blotting in mouse myoblasts; format: cell-based; details: azelaic acid treatment of dexamethasone-treated cells, vs Dexa
Method: (§2) Mouse myoblast cell line (C2C12 cells) was purchased from ATCC (Manassas, Va., USA) and used. The purchased cell line was incubated in an incubator at 37° C., 5% CO2 using 10% fetal bovine serum medium (Gibco-BRL) and used for experiments. When the cell line reached a confluency of about 80%, the cells were differentiated into myotubes using 2% horse serum medium (Gibco-BRL). In order to identify muscle-potentiating efficacy, treatment with 100 μM azelaic acid (CAS Number 123-99-9, Sigma) was performed for two days from the day when differentiation began, and a control was treated with 100 μM dimethyl sulfoxide (DMSO; Sigma). […]
(§3) In order to perform Western blotting in cells, to each well from which the medium was removed was added a lysis buffer that contains 500 μL of 100 mM Tris-HCl, pH 7.4, 5 mM EDTA, 50 mM sodium pyrophosphate, 50 mM NaF, 100 mM orthovanadate, 1% Triton X-100, 1 mM phenylmethanesulfonyl fluoride, 2 μg/mL aprotinin, 1 μg/mL pepstatin A, and 1 μg/mL leupeptin, and the cells were lysed to obtain a lysate. […] Then, the middle layer was taken and proteins were quantified according to the Bradford method (Bio-Rad). 40 μg of the quantified proteins were electrophoresed on SDS polyacrylamide gel and then transferred to nitrocellulose membranes (Amersham, Buckinghamshire, UK).

p-p70S6K1 = test: Western blotting in mouse myoblasts; format: cell-based; details: azelaic acid treatment of dexamethasone-treated cells, vs Dexa
Method: as §2, §3

[5] = test system: Mouse myoblast cell line (C2C12 cells); test: Myotube length in differentiating mouse myoblasts (muscle-potentiating efficacy), Wright-Giemsa staining; format: cell-based; details: 100 μM azelaic acid for two days from the day differentiation began, vs DMSO control
Method: as §1

MuRF1 = test: Real-time PCR mRNA expression in mouse myoblasts; format: cell-based; details: azelaic acid treatment of dexamethasone-treated cells, vs Dexa
Method: (§4) Mouse myoblast cell line (C2C12 cells) was purchased from ATCC (Manassas, Va., USA) and used. The purchased cell line was incubated in an incubator at 37° C., 5% CO2 using 10% fetal bovine serum medium (Gibco-BRL) and used for experiments. When the cell line reached a confluency of about 80%, the cells were differentiated into myotubes using 2% horse serum medium (Gibco-BRL). In order to identify muscle-potentiating efficacy, treatment with 100 μM azelaic acid (CAS Number 123-99-9, Sigma) was performed for two days from the day when differentiation began, and a control was treated with 100 μM dimethyl sulfoxide (DMSO; Sigma). In order to identify muscle loss-inhibitory efficacy, combined treatment with 50 μM dexamethasone (dexa; Sigma) and 100 μM azelaic acid (CAS Number 123-99-9, Sigma) was performed for two days from the 4th day of differentiation.
(§5) 334 μl of Trizol solution was added per 1×10^7 cells of mouse myoblasts, and grinding was performed. Then, the resultant was centrifuged at 4° C. and 12,000×g for 10 minutes. The supernatant was transferred to a new tube. Then, 67 μl of chloroform was added thereto and vortexing was performed. Again, the supernatant was transferred to a new tube, and isopropanol was added so that a ratio of the supernatant to isopropanol was 1:1. After performing vigorous shaking 10 times, the tube was allowed to stand at room temperature for 15 minutes, and centrifuged at 12,000×g and 4° C. for 10 minutes.

MAFbx/Atrogin1 = test: Real-time PCR mRNA expression in mouse myoblasts; format: cell-based; details: azelaic acid treatment of dexamethasone-treated cells, vs Dexa
Method: as §4, §5

myostatin = test: Real-time PCR mRNA expression in mouse myoblasts; format: cell-based; details: azelaic acid treatment of dexamethasone-treated cells, vs Dexa
Method: as §4, §5

IGF1 = test: Real-time PCR mRNA expression in mouse myoblasts; format: cell-based; details: azelaic acid treatment of dexamethasone-treated cells, vs Dexa
Method: as §4, §5

[6] = ethanol and water; cited from earlier work
rats = details: oral administration; cited from earlier work

O=C(O)CCCCCCCC(=O)O [azelaic acid, nonanedioic acid]
reaction of NADP oxidase (antioxidant effect) [1]: inhibiting
decreased viability of bacterial strains [2]: at least 40 fold
mRNA expression and protein secretion of interleukin-1β, interleukin-6, and TNF-α by UVB [3]: inhibition
increase in the myotube length which has decreased due to dexamethasone [4]: 62%
amount of p-4E-BP1 protein (p-4E-BP1): significantly increased
amount of p-p70S6K1 protein (p-p70S6K1): significantly increased
increase in myotube length [5]: 62%
expression of MuRF1 gene (MuRF1): significantly decreased
expression of MAFbx/Atrogin1 gene (MAFbx/Atrogin1): significantly decreased
expression of myostatin gene (myostatin): significantly decreased
expression of IGF1 gene (IGF1): significantly increased
solubility [6]: soluble
LD50 (rats): 15,800 mg/kg
